This passage reports IC50 results from US20190071416A1, “COMPOUNDS FOR TREATMENT OF CANCER AND EPIGENETICS” (Agency For Science, Technology and Research, priority 2015, published 2019).

SMILES strings stand for the structures.

The assay concerns the target T1, SMYD3 (Homo sapiens, UniProt Q9H7B4).
T1 sequence (Q9H7B4 1-428): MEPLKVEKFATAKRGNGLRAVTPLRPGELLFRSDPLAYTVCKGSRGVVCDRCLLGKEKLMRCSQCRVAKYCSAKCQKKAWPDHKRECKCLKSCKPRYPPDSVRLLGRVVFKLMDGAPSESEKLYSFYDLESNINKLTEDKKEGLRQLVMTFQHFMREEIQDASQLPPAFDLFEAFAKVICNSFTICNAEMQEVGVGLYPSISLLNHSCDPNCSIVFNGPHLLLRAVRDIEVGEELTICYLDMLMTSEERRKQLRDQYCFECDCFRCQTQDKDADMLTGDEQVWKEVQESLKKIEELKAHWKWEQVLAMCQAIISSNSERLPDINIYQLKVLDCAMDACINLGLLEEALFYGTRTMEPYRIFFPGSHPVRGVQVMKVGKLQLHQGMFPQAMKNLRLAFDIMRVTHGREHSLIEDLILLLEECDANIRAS
The assay can be described thus: SMYD3 biochemical assay (MTase-Glo, MAP3K2 peptide substrate). The conditions noted are these: Table 3; MTase assay, MAP3K2 peptide substrate; read-out: IC50. The procedure, abridged: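 Luminescent readout of SAH production (coupled SAH→ATP conversion, MTase-Glo) after SMYD3 reacted 30 min at room temperature with 1.0 µM SAM and 10 µM MAP3K2 peptide, both final. Non-linear regression gave IC50 values.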

One may read the IC50 as the concentration at which inhibition is half-maximal. As for `COc1ccc(-c2cc(Cl)c3ccc(C(=O)N4CCN(C(=O)c5cn(C6CC6)nn5)CC4)cc3n2)cc1CN` [D014, (2-(3-(Aminomethyl)-4-methoxyphenyl)-4-chloroquinolin-7-yl)(4-(1-cyclopropyl-1H-1,2,3-triazole-4-carbonyl)piperazin-1-yl)methanone], the IC50 worked out at 0.069 µM. Turning to `CCCOC(=O)N1CCN(C(=O)c2ccc3c(Cl)cc(-c4cccc(NC)c4)nc3c2)C[C@H]1C` [B083, Propyl (R)-4-(4-chloro-2-(3-(methylamino)phenyl)quinoline-7-carbonyl)-2-methylpiperazine-1-carboxylate], the 50% inhibitory concentration (IC50) is 0.058 µM. With `CCCOC(=O)N1CCN(C(=O)c2ccc3c(Cl)cc(-c4cccc(CN(C)C)c4)nc3c2)C[C@H]1C` [B111, Propyl (R)-4-(4-chloro-2-(3-((dimethylamino)methyl)phenyl)quinoline-7-carbonyl)-2-methylpiperazine-1-carboxylate], the IC50 amounted to 0.22 µM. On to `NC1(c2ccc(-c3cc(Cl)c4ccc(C(=O)N5CCN(C(=O)c6cn(C7CC7)nn6)CC5)cc4n3)cc2)CC1` [D013, (2-(4-(1-Aminocyclopropyl)phenyl)-4-chloroquinolin-7-yl)(4-(1-cyclopropyl-1H-1,2,3-triazole-4-carbonyl)piperazin-1-yl)methanone], for which the IC50 was found to be 0.078 µM. Turning to `CCCOC(=O)N1CC(C)N(C(=O)c2ccc3c(Cl)c4c(nc3c2)CCCC4)C(C)C1` (stereo not shown) [A043, Propyl 4-(9-chloro-5,6,7,8-tetrahydroacridine-3-carbonyl)-3,5-dimethylpiperazine-1-carboxylate], the IC50 was 0.55 µM.

As for `CCCOC(=O)N1CCN(C(=O)c2ccc3c(Cl)cc(-c4ccn(S(=O)(=O)N(C)C)c4)nc3c2)CC1` [B231, Propyl 4-(4-chloro-2-(1-(N,N-dimethylsulfamoyl)-1H-pyrrol-3-yl)quinoline-7-carbonyl)piperazine-1-carboxylate], the IC50 stood at 0.63 µM. `O=C(c1ccc2c(Cl)c3c(nc2c1)CCCC3)N1CCN(C(=O)c2cc(C3CC3)on2)CC1` [A006, (9-Chloro-5,6,7,8-tetrahydroacridin-3-yl)(4-(5-cyclopropylisoxazole-3-carbonyl)piperazin-1-yl)methanone]: the IC50 was found to be 6.7 µM.

For the compound `CCCOC(=O)N1CCN(C(=O)c2ccc3c(Cl)c4c(nc3c2)CC(c2ccc(F)cn2)CC4)[C@@H](C)C1` (stereo partly drawn) [A095, Propyl (3S)-4-(9-chloro-6-(5-fluoropyridin-2-yl)-5,6,7,8-tetrahydroacridine-3-carbonyl)-3-methylpiperazine-1-carboxylate], the IC50 was determined as 0.11 µM.

In the case of `CCCOC(=O)N1CCN(C(=O)c2ccc3c(Cl)c4c(nc3c2)CC(c2cncnc2)CC4)CC1` (stereo not shown) [A057, Propyl 4-(9-chloro-6-(pyrimidin-5-yl)-5,6,7,8-tetrahydroacridine-3-carbonyl)piperazine-1-carboxylate], the IC50 came out at 0.31 µM. Take `CCCOC(=O)N1CCN(C(=O)c2ccc3c(Cl)cc(-c4cccc(CN)c4)nc3c2)C[C@@H]1C` [B145, Propyl (S)-4-(2-(3-(aminomethyl)phenyl)-4-chloroquinoline-7-carbonyl)-2-methylpiperazine-1-carboxylate]: the IC50 was found to be 0.047 µM.

Take `Cn1cc(-c2cc(Cl)c3ccc(C(=O)N4CCN(C(=O)OCCF)CC4)cc3n2)cn1` [B261, 2-Fluoroethyl 4-(4-chloro-2-(1-methyl-1H-pyrazol-4-yl)quinoline-7-carbonyl)piperazine-1-carboxylate]: the IC50 came out at 2.7 µM. `CCCOC(=O)N1CCN(C(=O)c2ccc3c(Cl)cc(-c4cc(F)c(O)c(F)c4)nc3c2)C[C@H]1C` [B217, Propyl (R)-4-(4-chloro-2-(3,5-difluoro-4-hydroxyphenyl)quinoline-7-carbonyl)-2-methylpiperazine-1-carboxylate]: the IC50 is 0.13 µM. As to `CCCOC(=O)N1CCN(C(=O)c2ccc3c(Cl)cc(-c4cc(F)c(C(N)=O)c(F)c4)nc3c2)CC1` [B253, Propyl 4-(2-(4-carbamoyl-3,5-difluorophenyl)-4-chloroquinoline-7-carbonyl)piperazine-1-carboxylate], the IC50 came to 0.49 µM. Turning to `CCCOC(=O)N1CCN(C(=O)c2ccc3c(Cl)cc(-c4ccc(OC)c(CN)c4)nc3c2)C[C@@H]1C` [B280, Propyl (S)-4-(2-(3-(aminomethyl)-4-methoxyphenyl)-4-chloroquinoline-7-carbonyl)-2-methylpiperazine-1-carboxylate], the IC50 is 0.067 µM. As to `Cn1cc(C(=O)N2CCN(C(=O)c3ccc4c(Cl)cc(-c5ccccc5)nc4c3)CC2)nn1` [D007, (4-Chloro-2-phenylquinolin-7-yl)(4-(1-methyl-1H-1,2,3-triazole-4-carbonyl)piperazin-1-yl)methanone], the IC50 came out at 0.083 µM. As for `CCCOC(=O)N1CCN(C(=O)c2ccc3c(Cl)cc(-c4cc(C)n(C)c4CN)nc3c2)CC1` [B227, Propyl 4-(2-(2-(aminomethyl)-1,5-dimethyl-1H-pyrrol-3-yl)-4-chloroquinoline-7-carbonyl)piperazine-1-carboxylate], the IC50 was found to be 0.77 µM. Consider `CCCOC(=O)N1CCN(C(=O)c2ccc3c(Cl)cc(-c4ccc(N)cc4)nc3c2)C[C@H]1C` [B074, Propyl (R)-4-(2-(4-aminophenyl)-4-chloroquinoline-7-carbonyl)-2-methylpiperazine-1-carboxylate], for which the IC50 is 0.13 µM. As to `CCCOC(=O)N1CCN(C(=O)c2ccc3c(Cl)cc(-c4ccc(C)cc4)nc3c2)CC1` [B010], the IC50 came to 0.5 µM.

On to `C=CCCC(=O)N1CCN(C(=O)c2ccc3c(Cl)c4c(nc3c2)CCCC4)CC1` [A050, 1-(4-(9-Chloro-5,6,7,8-tetrahydroacridine-3-carbonyl)piperazin-1-yl)pent-4-en-1-one], for which the IC50 was found to be 3.5 µM.

For `CCCCOC(=O)N1CCN(C(=O)c2ccc3c(Cl)c4c(nc3c2)CCCC4)CC1` [A038, Butyl 4-(9-chloro-5,6,7,8-tetrahydroacridine-3-carbonyl)piperazine-1-carboxylate], the IC50 was 0.42 µM. For `CCCOC(=O)N1CCN(C(=O)c2ccc3c(Cl)cc(-c4ccc(O)c(OCC)c4)nc3c2)CC1` [B181, Propyl 4-(4-chloro-2-(3-ethoxy-4-hydroxyphenyl)quinoline-7-carbonyl)piperazine-1-carboxylate], the concentration for half-maximal inhibition (IC50) is 0.29 µM.

As to `CCCOC(=O)N1CCN(C(=O)c2ccc3c(Cl)c(C)c(-c4ccc(F)cc4)nc3c2)CC1` [B022, Propyl 4-(4-chloro-2-(4-fluorophenyl)-3-methylquinoline-7-carbonyl)piperazine-1-carboxylate], the IC50 was 0.85 µM. As for `CCCOC(=O)N1CCN(C(=O)c2ccc3c(Cl)cc(-c4cccs4)nc3c2)C[C@H]1C` [B085, Propyl (R)-4-(4-chloro-2-(thiophen-2-yl)quinoline-7-carbonyl)-2-methylpiperazine-1-carboxylate], the IC50 was determined as 0.21 µM.

With `C#Cc1ccc(-c2cc(Cl)c3ccc(C(=O)N4CCN(C(=O)OCCC)[C@H](C)C4)cc3n2)cc1` [B059, Propyl (R)-4-(4-chloro-2-(4-ethynylphenyl)quinoline-7-carbonyl)-2-methylpiperazine-1-carboxylate], the IC50 was found to be 1 µM. As for `CCCOC(=O)N1CCN(C(=O)c2ccc3c(Cl)cc(-c4ccc(OC)c(CO)c4)nc3c2)C[C@@H]1C` [B171, Propyl (S)-4-(4-chloro-2-(3-(hydroxymethyl)-4-methoxyphenyl)quinoline-7-carbonyl)-2-methylpiperazine-1-carboxylate], the IC50 amounted to 0.15 µM.
